How the values were obtained:
Type in all cases: in vivo
[1] = system: soybean (Glycine max); test: Test C greenhouse herbicide test, pre- and postemergence
Excerpt: (§1) Seeds of plant species selected from blackgrass (Alopecurus myosuroides), ryegrass, Italian (Italian ryegrass, Lolium multiflorum), wheat (winter wheat, Triticum aestivum), galium (catchweed bedstraw, Galium aparine), corn (Zea mays), large crabgrass, large (large crabgrass, Digitaria sanguinalis), foxtail, giant (giant foxtail, Setaria faberii), johnsongrass (Sorghum halepense), lambsquarters (Chenopodium album), morningglory (Ipomoea coccinea), nutsedge, yellow (yellow nutsedge, Cyperus esculentus), pigweed (Amaranthus retroflexus), ragweed (common ragweed, Ambrosia elatior), soybean (Glycine max), barnyardgrass (Echinochloa crus-galli), oilseed rape (Brassica napus), waterhemp (common waterhemp, Amaranthus rudis), and velvetleaf (Abutilon theophrasti) were planted into a blend of loam soil and sand and treated preemergence with test chemicals formulated in a non-phytotoxic solvent mixture which included a surfactant.
(§2) At the same time, plants selected from these crop and weed species and also chickweed (common chickweed, Stellaria media), kochia (Kochia scoparia), and oat, wild (wild oat, Avena fatua), were planted in pots containing Redi-Earth® planting medium (Scotts Company, 14111 Scottslawn Road, Marysville, Ohio 43041) comprising spaghnum peat moss, vermiculite, wetting agent and starter nutrients and treated with postemergence applications of test chemicals formulated in the same manner. Plants ranged in height from 2 to 18 cm (1- to 4-leaf stage) for postemergence treatments. Treated plants and controls were maintained in a greenhouse for 13 to 15 d, after which time all species were compared to controls and visually evaluated. Plant response ratings, summarized in Table C, are based on a scale of 0 to 100 where 0 is no effect and 100 is complete control. A dash (-) response means no test result.

[2] = system: ryegrass, Italian (Italian ryegrass, Lolium multiflorum); test: as above
Excerpt: as §1, §2

[3] = system: ragweed (common ragweed, Ambrosia elatior); test: as above
Excerpt: as §1, §2

[4] = system: blackgrass (Alopecurus myosuroides); test: as above
Excerpt: as §1, §2

[5] = system: velvetleaf (Abutilon theophrasti); test: as above
Excerpt: as §1, §2

[6] = system: barnyardgrass (Echinochloa crus-galli); test: as above
Excerpt: as §1, §2

[7] = system: nutsedge, yellow (yellow nutsedge, Cyperus esculentus); test: as above
Excerpt: as §1, §2

[8] = system: galium (catchweed bedstraw, Galium aparine); test: as above
Excerpt: as §1, §2

[9] = system: pigweed (Amaranthus retroflexus); test: as above
Excerpt: as §1, §2

[10] = system: kochia (Kochia scoparia); test: Test C greenhouse herbicide test, postemergence
Outline: (§3)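 Postemergence foliar treatment, 1- to 4-leaf stage (2–18 cm), peat/vermiculite medium; greenhouse 13–15 d; visual rating vs controls, 0 = no effect, 100 = complete control; dash = no result.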

[11] = system: oat, wild (wild oat, Avena fatua); test: Test C greenhouse herbicide test, postemergence
Outline: as §3

[12] = system: chickweed (common chickweed, Stellaria media); test: Test C greenhouse herbicide test, postemergence
Outline: as §3

[13] = Postemergence, 31 g ai/ha, 0 to 100 scale (0 no effect, 100 complete control)
[14] = Postemergence, 125 g ai/ha, scale 0 to 100, 0 is no effect, 100 is complete control
[15] = Postemergence, 250 g ai/ha, scale 0 to 100, 0 no effect, 100 complete control, 13 to 15 d
[16] = Preemergence, 62 g ai/ha, scale 0 to 100, 0 is no effect, 100 is complete control
[17] = Preemergence, 125 g ai/ha, scale 0 to 100, 0 is no effect, 100 is complete control
[18] = Preemergence, 250 g ai/ha, scale 0 to 100, 0 no effect, 100 complete control
[19] = postemergence, 62 g ai/ha, scale 0 to 100, 0 no effect, 100 complete control
[20] = Preemergence, 31 g ai/ha, scale 0 to 100, 0 is no effect, 100 is complete control

Cc1nn(C)c(=O)c(-c2cccc3ccccc23)c1O [Compound 11, 5-hydroxy-2,6-dimethyl-4-(1-naphthalenyl)-3(2H)-pyridazinone]
Soybean plant response rating [1, 13]: 0
Plant response rating, Soybean [1, 14]: 0
Plant response rating, Soybean [1, 15]: 0
Plant response rating, Soybean [1, 16]: 0
Plant response rating, Soybean [1, 17]: 0
Soybean plant response rating [1, 18]: 0
Soybean plant response rating [1, 19]: 0
Ryegrass, Italian plant response rating [2, 13]: 70
Plant response rating, Ryegrass, Italian [2, 14]: 90
Plant response rating, Ryegrass, Italian [2, 15]: 90
Plant response rating, Ryegrass, Italian [2, 20]: 90
Plant response rating, Ryegrass, Italian [2, 16]: 95
Plant response rating, Ryegrass, Italian [2, 17]: 100
Ryegrass, Italian plant response rating [2, 18]: 100
Ryegrass, Italian plant response rating [2, 19]: 70
Ragweed plant response rating [3, 13]: 0
Plant response rating, Ragweed [3, 14]: 95
Plant response rating, Ragweed [3, 15]: 95
Plant response rating, Ragweed [3, 20]: 15
Plant response rating, Ragweed [3, 16]: 50
Plant response rating, Ragweed [3, 17]: 80
Ragweed plant response rating [3, 18]: 90
Ragweed plant response rating [3, 19]: 40
Blackgrass plant response rating [4, 13]: 5
Plant response rating, Blackgrass [4, 14]: 30
Plant response rating, Blackgrass [4, 15]: 75
Plant response rating, Blackgrass [4, 20]: 35
Plant response rating, Blackgrass [4, 16]: 40
Plant response rating, Blackgrass [4, 17]: 50
Blackgrass plant response rating [4, 18]: 85
Blackgrass plant response rating [4, 19]: 15
Velvetleaf plant response rating [5, 13]: 0
Plant response rating, Velvetleaf [5, 14]: 45
Plant response rating, Velvetleaf [5, 15]: 80
Plant response rating, Velvetleaf [5, 16]: 10
Plant response rating, Velvetleaf [5, 17]: 90
Velvetleaf plant response rating [5, 18]: 90
Velvetleaf plant response rating [5, 19]: 5
Barnyardgrass plant response rating [6, 13]: 0
Plant response rating, Barnyardgrass [6, 14]: 5
Plant response rating, Barnyardgrass [6, 15]: 15
Plant response rating, Barnyardgrass [6, 20]: 0
Plant response rating, Barnyardgrass [6, 16]: 0
Plant response rating, Barnyardgrass [6, 17]: 10
Barnyardgrass plant response rating [6, 18]: 80
Barnyardgrass plant response rating [6, 19]: 0
Nutsedge, Yellow plant response rating [7, 13]: 5
Plant response rating, Nutsedge, Yellow [7, 14]: 30
Plant response rating, Nutsedge, Yellow [7, 15]: 45
Plant response rating, Nutsedge, Yellow [7, 20]: 0
Plant response rating, Nutsedge, Yellow [7, 16]: 5
Plant response rating, Nutsedge, Yellow [7, 17]: 10
Nutsedge, Yellow plant response rating [7, 18]: 30
Nutsedge, Yellow plant response rating [7, 19]: 15
Galium plant response rating [8, 13]: 75
Plant response rating, Galium [8, 14]: 90
Plant response rating, Galium [8, 15]: 90
Plant response rating, Galium [8, 20]: 85
Plant response rating, Galium [8, 16]: 90
Plant response rating, Galium [8, 17]: 90
Galium plant response rating [8, 18]: 95
Galium plant response rating [8, 19]: 90
Pigweed plant response rating [9, 13]: 50
Plant response rating, Pigweed [9, 14]: 90
Plant response rating, Pigweed [9, 15]: 95
Plant response rating, Pigweed [9, 20]: 0
Plant response rating, Pigweed [9, 16]: 100
Plant response rating, Pigweed [9, 17]: 100
Pigweed plant response rating [9, 18]: 100
Pigweed plant response rating [9, 19]: 90
Kochia plant response rating [10, 13]: 85
Plant response rating, Kochia [10, 14]: 100
Plant response rating, Kochia [10, 15]: 100
Kochia plant response rating [10, 19]: 95
Oat, Wild plant response rating [11, 13]: 40
Plant response rating, Oat, Wild [11, 14]: 60
Plant response rating, Oat, Wild [11, 15]: 70
Oat, Wild plant response rating [11, 19]: 45
Chickweed plant response rating [12, 13]: 60
Plant response rating, Chickweed [12, 14]: 85
Plant response rating, Chickweed [12, 15]: 90
Chickweed plant response rating [12, 19]: 65

— patent publication US10597388B2, “Pyridazinone herbicides” (FMC CORPORATION, priority 2014, dated 2020)
